Laboratory results: patent US9006442B2, “Cannabinoid receptor modulators” (Lupin Limited, priority 2011, dated 2015)
pEC50: −log10 of the molar value.

Columns and labels:
rats [1] = assay: FCA-induced inflammatory allodynia, paw withdrawal threshold, von Frey filaments; format: in vivo; conditions: mechanical allodynia 7 days after FCA injection, dose 10 mg/kg
Procedure: FCA (Freund's Complete Adjuvant)—Induced Inflammatory Allodynia:
An emulsion of Freund's Complete Adjuvant (FCA), containing heat killed Mycobacterium tuberculosis (4 mg/ml) in incomplete Freund's adjuvant and saline (1:1) at a final concentration of 2 mg/ml, when injected (150 μl) into the plantar region of the paw of rats induces an inflammatory pain. Mechanical allodynia (7 days after injection) was assessed by measuring hind paw withdrawal thresholds with von Frey filaments. The 50% paw withdrawal threshold was determined using up and down method of Dixon and as per the Chaplan method.

rats [2] = assay: Chronic constriction injury (CCI)-induced neuropathic pain (Bennett's model), mechanical allodynia, von Frey filaments; format: in vivo; conditions: CCI of sciatic nerve, mechanical allodynia after 10-15 days, dose 10 mg/kg
Procedure: Chronic Constriction Injury (CCI)—Induced Neuropathic Pain (Bennett's Model):
Chronic constriction injury (CCI) of sciatic nerve in rats induces mechanical allodynia in this Bennet's neuropathic pain model. Rats were anesthetized using ketamine/xylazine (50/5 mg/kg, i.p.) and the left sciatic nerve was exposed at mid thigh level through a small incision. Four loose ligatures of 4-0 chromic cat gut (Ethicon—Johnson & Johnson) at 1 mm space were placed around the sciatic nerve after the bifurcation of common sciatic nerve. After 10-15 days, mechanical allodynia was assessed by measuring hind paw withdrawal thresholds with von Frey filaments. The 50% paw withdrawal threshold was determined using up and down method of Dixon and as per the Chaplan method.

hCB2 = hCB2 (Homo sapiens, UniProt P34972); assay: cAMP determination in functional hCB2-CHO stable cells (HTRF); format: cell-based
Sequence of hCB2 (P34972 whole entry): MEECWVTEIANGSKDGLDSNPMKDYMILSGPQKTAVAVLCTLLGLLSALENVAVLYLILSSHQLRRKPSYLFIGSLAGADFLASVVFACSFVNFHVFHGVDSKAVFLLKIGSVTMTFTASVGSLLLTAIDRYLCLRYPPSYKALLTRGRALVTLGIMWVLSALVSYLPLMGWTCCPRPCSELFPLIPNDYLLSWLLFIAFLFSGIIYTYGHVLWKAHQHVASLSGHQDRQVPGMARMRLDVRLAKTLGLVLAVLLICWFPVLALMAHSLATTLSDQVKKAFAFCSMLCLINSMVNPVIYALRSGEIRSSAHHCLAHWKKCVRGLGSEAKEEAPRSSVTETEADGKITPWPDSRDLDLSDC

| SMILES | % Improvement (MEAN ± S.E.M.) in Paw withdrawal Threshold, 1 h (rats [1]) [%] | % Improvement (MEAN ± S.E.M.) in Paw withdrawal Threshold, 2 h (rats [1]) [%] | % Improvement (MEAN ± S.E.M.) in Paw withdrawal Threshold, 1 h (rats [2]) [%] | % Improvement (MEAN ± S.E.M.) in Paw withdrawal Threshold, 2 h (rats [2]) [%] | pEC50 (hCB2) |
| --- | --- | --- | --- | --- | --- |
| Cc1cccc2c(Nc3cccc(Cl)c3)ncc(C(=O)N3CCCCC3)c12 [Example-22, (1-((3-Chlorophenyl)amino)-5-methylisoquinolin-4-yl)(piperidin-1-yl)methanone] | 17.7 ± 7.1 | 30.7 ± 8.8 | 61.8 ± 10.1 | 70.2 ± 9.5 | > 8.00 |
| Cc1cccc2c(Nc3cccc(Cl)c3)ncc(C(=O)N3CC4CC(C3)O4)c12 [Example-39, 6-Oxa-3-azabicyclo[3.1.1]heptan-3-yl(1-((3-chlorophenyl)amino)-5-methylisoquinolin-4-yl)methanone] | 2.10 ± 1.87 | 10.22 ± 4.68 | 11.6 ± 12.8 | 0.7 ± 1.1 | > 8.00 |
| Cc1cccc2c(Nc3cccc(C(F)(F)F)c3)ncc(C(=O)N3CC4CC(C3)O4)c12 [Example-40, 6-Oxa-3-azabicyclo[3.1.1]heptan-3-yl(5-methyl-1-((3-(trifluoromethyl)phenyl)amino)isoquinolin-4-yl)methanone] | 12.8 ± 4.6 | 13.8 ± 4.5 | 21.6 ± 10.6 | 11.2 ± 2.9 | > 8.00 |
